Experimental data taken from patent US10456379B2, “Imidazole-based antimicrobial agents” (priority 2014, dated 2019).
In brackets after ≈: the same amount, converted by molar mass. Where two headings read alike, the source gives them in different places.

Assays:
[1] = system: vancomycin-resistant Enterococcus faecium (ATCC51559); test: microbe, parasite or virus in culture; assay type: cell-based
[2] = system: moenomycin-resistant Staphylococcus aureus (from MRSA COL); test: Broth microdilution MIC assay, moenomycin-resistant MRSA; assay type: cell-based; settings: 24 h, read-out: Antibacterial activity, MRSA strains with additional resistance, M (moenomycin), MIC class
[3] = system: platensimycin-resistant Staphylococcus aureus (from MRSA COL); test: Broth microdilution MIC assay, platensimycin-resistant MRSA; assay type: cell-based; settings: 24 h, read-out: Antibacterial activity, MRSA strains with additional resistance, P (platensimycin), MIC class
[4] = system: Mycobacterium smegmatis (mc(2)155); test: Broth microdilution MIC assay, Mycobacterium smegmatis
[5] = system: Bacillus subtilis (Marburg strain, ATCC6051); test: microbe, parasite or virus in culture; assay type: cell-based; settings: ATCC6051, read-out: Antibacterial activity, BS (Bacillus substilis), MIC class
[6] = system: Streptococcus pneumoniae (Chester, ATCC49619); test: Broth microdilution MIC assay, Streptococcus pneumoniae; assay type: cell-based; settings: for Antibacterial activity Streptococcus pneumoniae: MIC class score, MIC100, broth microdilution; for MIC: Streptococcus pneumoniae, ATCC49619, read-out: Antibacterial activity, SP (Streptococcus pneumoniae), MIC class
[7] = system: daptomycin-resistant Staphylococcus aureus (from MRSA COL); test: Broth microdilution MIC assay, daptomycin-resistant MRSA; assay type: cell-based; settings: 24 h, read-out: Antibacterial activity, MRSA strains with additional resistance, D (daptomycin), MIC class
[8] = system: linezolid-resistant Staphylococcus aureus (from MRSA COL); test: Broth microdilution MIC assay, linezolid-resistant MRSA; assay type: cell-based; settings: 24 h, read-out: Antibacterial activity, MRSA strains with additional resistance, L (linezolid), MIC class
[9] = system: Enterococcus faecalis (ATCC29212); test: Broth microdilution MIC assay, Enterococcus faecalis; assay type: cell-based; settings: read-out: Antibacterial activity, EFs (Enterococcus faecalis), MIC class
[10] = system: MRSA (COL) resistant to triclosan; test: Broth microdilution MIC assay, triclosan-resistant MRSA; settings: Staphylococcus aureus, read-out: Antibacterial activity, MRSA strains with additional resistance, T (triclosan), MIC class
[11] = system: vancomycin-resistant Staphylococcus aureus (from MRSA COL); test: Broth microdilution MIC assay, vancomycin-resistant MRSA; assay type: cell-based; settings: 24 h, read-out: Antibacterial activity, MRSA strains with additional resistance, V (vancomycin), MIC class
[12] = system: vancomycin-resistant Enterococcus faecalis (ATCC51575); test: microbe, parasite or virus in culture; assay type: cell-based
[13] = system: Staphylococcus epidermidis (PCI 1200, ATCC12228); test: Broth microdilution MIC assay, Staphylococcus epidermidis; assay type: cell-based; settings: read-out: Antibacterial activity, SE (Staphylococcus epidermidis), MIC class
[14] = system: Staphylococcus aureus MSSA (Newman); test: Broth microdilution MIC assay, Staphylococcus aureus MSSA (Newman); assay type: cell-based; settings: MIC class score, MIC100, broth microdilution, Newman strain
[15] = system: Staphylococcus aureus MRSA (COL); test: Broth microdilution MIC assay, Staphylococcus aureus MRSA (COL); assay type: cell-based; settings: MIC class score, MIC100, broth microdilution, COL strain
[16] = system: Enterococcus faecium (AGR15, ATCCBAA-2127); test: Broth microdilution MIC assay, Enterococcus faecium; assay type: cell-based; settings: ATCCBAA2127, read-out: Antibacterial activity, EFm (Enterococcus faecium), MIC class
[17] = system: Escherichia coli TolC mutant strain ΔtolC; assay type: cell-based
[18] = ATCC51559, vancomycin-resistant Enterococcus faecium, read-out: Antibacterial activity, VREFm (vancomycin-resistant EFm), MIC class
[19] = Enterococcus faecium, ATCC51559, read-out: Antibacterial activity, VREFm (vancomycin-resistant EFm), MIC class
[20] = ATCC51575, vancomycin-resistant Enterococcus faecalis, read-out: Antibacterial activity, VREFs (vancomycin-resistant EFs), MIC class

SMILES | MIC [1, 18] [µg/mL] | MIC [3] [µg/mL] | Antibacterial activity, MS (Mycobacterium smegmatis), MIC class [4] | Antibacterial activity Streptococcus pneumoniae [6] | MIC [7] [µg/mL] | MIC [6] [µg/mL] | MIC [8] [µg/mL] | MIC [9] [µg/mL] | MIC [10] [µg/mL] | MIC [12, 20] [µg/mL] | also measured
Cc1nc(-c2ccc(-c3ccc(Cl)cc3Cl)o2)[nH]c1-c1ccccc1 [compound 1] | 20 to 50 (≈ 54.2 to 135 µM) | 3 to 10 (≈ 8.12 to 27.1 µM) | 2 (MIC100 of 11-20 μg/ml) | – | – | – | – | – | – | – | MIC [2]: 3 to 10 µg/mL (≈ 8.12 to 27.1 µM)
Cc1[nH]c(-c2ccc(-c3ccc(Cl)cc3)s2)nc1-c1ccccc1 [compound 6] | – | – | 2 (MIC100 of 11-20 μg/ml) | 3 (MIC100 of 2-5 μg/ml) | – | – | – | – | – | – | MIC [5]: 11 to 20 µg/mL (≈ 31.4 to 57 µM)
Cc1nc(-c2ccc(-c3ccccc3OC(F)(F)F)o2)[nH]c1-c1ccccc1Cl [compound 19] | – | – | 2 (MIC100 of 11-20 μg/ml) | – | 3 to 10 (≈ 7.16 to 23.9 µM) | < 1 | 3 to 10 (≈ 7.16 to 23.9 µM) | – | – | – | MIC [1, 19]: 20 to 50 µg/mL (≈ 47.8 to 119 µM)
Cc1[nH]c(-c2ccc(-c3ccccc3OC(F)(F)F)o2)nc1-c1ccc(Cl)cc1 [compound 24] | – | 11 to 20 (≈ 26.3 to 47.8 µM) | – | – | 1 to 3 (≈ 2.39 to 7.16 µM) | – | – | 20 to 50 (≈ 47.8 to 119 µM) | 1 to 3 (≈ 2.39 to 7.16 µM) | 20 to 50 (≈ 47.8 to 119 µM) | MIC [11]: 1 to 3 µg/mL (≈ 2.39 to 7.16 µM)
Cc1[nH]c(-c2ccc(-c3ccccc3OC(F)(F)F)o2)nc1Cc1ccc(Br)cc1 [compound 30, 4-(4-Bromo-benzyl)-5-methyl-2-[5-(2-trifluoromethoxy-phenyl)-furan-2-yl]-1H-imidazole] | 20 to 50 (≈ 41.9 to 105 µM) | 20 to 50 (≈ 41.9 to 105 µM) | – | – | 1 to 3 (≈ 2.1 to 6.29 µM) | – | – | – | 11 to 20 (≈ 23 to 41.9 µM) | – | MIC [13]: 11 to 20 µg/mL (≈ 23 to 41.9 µM)
Cc1nc(-c2ccc(-c3ccc(Cl)cc3C(F)(F)F)o2)[nH]c1-c1ccccc1 [compound 32] | 20 to 50 (≈ 49.7 to 124 µM) | – | – | 3 (MIC100 of 2-5 μg/ml) | – | 2 to 5 (≈ 4.97 to 12.4 µM) | – | – | – | – | MIC [5]: 3 to 10 µg/mL (≈ 7.45 to 24.8 µM)
Cc1nc(-c2ccc(-c3cccc(OC(F)(F)F)c3)o2)[nH]c1-c1ccccc1 [compound 34] | 20 to 50 (≈ 52 to 130 µM) | 11 to 20 (≈ 28.6 to 52 µM) | 2 (MIC100 of 11-20 μg/ml) | 3 (MIC100 of 2-5 μg/ml) | – | 2 to 5 (≈ 5.2 to 13 µM) | – | 20 to 50 (≈ 52 to 130 µM) | 3 to 10 (≈ 7.81 to 26 µM) | – | MIC [2]: 3 to 10 µg/mL (≈ 7.81 to 26 µM)
Cc1nc(-c2ccc(-c3ccc(C(F)(F)F)cc3)o2)[nH]c1-c1ccccc1 [compound 45] | – | – | – | – | 1 to 3 (≈ 2.71 to 8.14 µM) | < 1 | 1 to 3 (≈ 2.71 to 8.14 µM) | – | – | 20 to 50 (≈ 54.3 to 136 µM) | MIC [11]: 1 to 3 µg/mL (≈ 2.71 to 8.14 µM)
Cc1[nH]c(-c2ccc(-c3ccc(C(F)(F)F)c(Cl)c3)o2)nc1-c1ccc(F)cc1 [compound 49] | – | – | – | 3 (MIC100 of 2-5 μg/ml) | 1 to 3 (≈ 2.38 to 7.13 µM) | 2 to 5 (≈ 4.75 to 11.9 µM) | 11 to 20 (≈ 26.1 to 47.5 µM) | 11 to 20 (≈ 26.1 to 47.5 µM) | 1 to 3 (≈ 2.38 to 7.13 µM) | – | Antibacterial activity Staphylococcus aureus (MSSA) [14]: 3 (MIC100 of 3-10 μg/ml); MIC [13]: 11 to 20 µg/mL (≈ 26.1 to 47.5 µM); MIC [1, 19]: 20 to 50 µg/mL (≈ 47.5 to 119 µM); Antibacterial activity Staphylococcus aureus (MRSA) [15]: 2 (MIC100 of 11-20 μg/ml); MIC [16]: 20 to 50 µg/mL (≈ 47.5 to 119 µM); MIC ([12]; Enterococcus faecalis, ATCC51575, read-out: Antibacterial activity, VREFs (vancomycin-resistant EFs), MIC class): 20 to 50 µg/mL (≈ 47.5 to 119 µM)
Cc1[nH]c(-c2ccc(-c3cccc(F)c3C)o2)nc1-c1ccccc1 [compound 60] | – | – | 2 (MIC100 of 11-20 μg/ml) | 3 (MIC100 of 2-5 μg/ml) | 1 to 3 (≈ 3.01 to 9.03 µM) | – | 1 to 3 (≈ 3.01 to 9.03 µM) | 20 to 50 (≈ 60.2 to 150 µM) | – | – | –
FC(F)(F)Oc1ccccc1-c1ccc(-c2nc(Cl)c(-c3ccccc3)[nH]2)o1 [compound 64] | – | – | – | – | 1 to 3 (≈ 2.47 to 7.41 µM) | < 1 | – | – | – | – | Antibacterial activity Staphylococcus aureus (MSSA) [14]: 2 (MIC100 of 11-20 μg/ml); MIC [2]: 1 to 3 µg/mL (≈ 2.47 to 7.41 µM); MIC [11]: 1 to 3 µg/mL (≈ 2.47 to 7.41 µM)
Cc1ccccc1-c1c[nH]c(-c2ccc(-c3ccccc3OC(F)(F)F)o2)n1 [compound 66] | 20 to 50 (≈ 52 to 130 µM) | 11 to 20 (≈ 28.6 to 52 µM) | 2 (MIC100 of 11-20 μg/ml) | – | 1 to 3 (≈ 2.6 to 7.81 µM) | < 1 | 1 to 3 (≈ 2.6 to 7.81 µM) | – | – | 20 to 50 (≈ 52 to 130 µM) | Antibacterial activity Staphylococcus aureus (MSSA) [14]: 3 (MIC100 of 3-10 μg/ml); Antibacterial activity Staphylococcus aureus (MRSA) [15]: 2 (MIC100 of 11-20 μg/ml)
CN(C)Cc1[nH]c(-c2ccc(-c3ccccc3C(F)(F)F)o2)nc1-c1ccccc1 [compound 70] | 11 to 20 (≈ 26.7 to 48.6 µM) | – | – | 3 (MIC100 of 2-5 μg/ml) | 3 to 10 (≈ 7.29 to 24.3 µM) | 2 to 5 (≈ 4.86 to 12.2 µM) | – | 11 to 20 (≈ 26.7 to 48.6 µM) | – | 11 to 20 (≈ 26.7 to 48.6 µM) | MIC [13]: 11 to 20 µg/mL (≈ 26.7 to 48.6 µM); Antibacterial activity, EC Δ (Escherichia coli ΔtoIC), MIC class [17]: 3 (MIC100 of 3-10 μg/ml); MIC [16]: 11 to 20 µg/mL (≈ 26.7 to 48.6 µM)
